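Five compound concentrations were applied to cells in 96-well plates for 48 hours; endpoints were derived by simple linear interpolation of the resulting dose-response curve. GI50: concentration for 50% inhibition of growth. TGI is the concentration that stops growth completely.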
Key:
Experiment in all cases: DTP human tumour cell line panel, 48 h
[1] = test system: DU-145 prostate
[2] = test system: EKVX NSCLC
[3] = test system: HCT-15 colon
[4] = test system: OVCAR-8 ovarian
[5] = test system: SK-MEL-28 melanoma
[6] = test system: SK-MEL-5 melanoma
[7] = test system: UACC-257 melanoma
[8] = test system: HL-60(TB) leukemia
[9] = test system: NCI-H226 lung
[10] = test system: SF-539 CNS

| SMILES | TGI [1] [µM] | TGI [2] [µM] | TGI [3] [µM] | TGI [4] [µM] | TGI [5] [µM] | TGI [6] [µM] | TGI [7] [µM] | GI50 [1] [µM] | GI50 [2] [µM] | GI50 [3] [µM] | GI50 [8] [µM] | TGI [8] [µM] | GI50 [9] [µM] | TGI [9] [µM] | GI50 [4] [µM] | GI50 [10] [µM] | TGI [10] [µM] | GI50 [5] [µM] | GI50 [6] [µM] | GI50 [7] [µM] |
| --- | --- | --- | --- | --- | --- | --- | --- | --- | --- | --- | --- | --- | --- | --- | --- | --- | --- | --- | --- | --- |
| O=[N+]([O-])c1ccc(N=Nc2c(O)ccc3cc(S(=O)(=O)O)ccc23)cc1 | > 100 | > 100 | > 100 | > 100 | > 100 | > 100 | > 100 |  |  |  |  |  |  |  |  |  |  |  |  |  |
| O=C(CCCn1c(=O)c2sc3ccccc3c2n2nnc(-c3ccccc3)c12)NCCc1cnc[nH]1 | 2.98 | 8.77 | 2.51 | 2.79 | 3.2 | 4.11 | 4.58 | 1.55 | 2.7 | 1.26 | 1.41 | 6.36 | 18.6 | 37.7 | 0.32 | 0.664 | 2.19 | 1.75 | 1.91 | 2.04 |
| CO[C@H]1[C@@H](O)[C@@H](C)O[C@@H](O[C@H]2CC[C@@]3(C)[C@H](CC[C@@H]4[C@@H]3CC[C@]3(C)[C@@H](C5=CC(=O)OC5)CC[C@]43O)C2)[C@@H]1O | 0.00729 | 0.0106 | 0.0419 | 0.0444 | 1.01 | 0.0342 | 0.0446 |  |  |  |  | 0.0119 |  | 0.135 |  |  | 0.0247 |  |  |  |
| COc1cc(-c2n/c(=C\c3c(O)[nH]c4ccc(Cl)cc34)cc3c2=Nc2ccccc2-3)cc(OC)c1OC | 2.59 | 18.7 | 8.44 |  | 4.41 | 5.63 |  | 0.655 | 3.59 | 1.56 | 10.7 | 38.1 | 3 | 12 |  | 2.32 | 4.91 | 2.04 | 1.83 |  |
| [N-]=[N+]=Nc1ccc(NCCCCCC(=O)ON2C(=O)CCC2=O)c([N+](=O)[O-])c1 | > 100 | > 100 | > 100 | > 100 | > 100 | > 100 | > 100 |  |  |  |  | > 100 |  | > 100 |  |  | > 100 |  |  |  |
| O=c1[nH][nH]c(=O)[nH]1 |  | > 100 | > 100 |  | > 100 | > 100 | > 100 |  |  |  |  | > 100 |  | > 100 |  |  | > 100 |  |  |  |
| Cc1nc2ccccc2c(=O)n1-c1n[nH]c2ccccc12 | > 100 | > 100 | > 100 | > 100 | > 100 | > 100 | > 100 |  |  |  |  |  |  | > 100 |  |  | > 100 |  |  |  |
| O=S1(=O)NNC(=NCc2ccc(Cl)c(Cl)c2)c2ccccc21 |  | > 100 | > 100 | > 100 |  | > 100 | > 100 |  |  |  |  | > 100 |  | > 100 |  |  | > 100 |  |  |  |
| CN1CCN(c2ccc(-c3ccc4ncc(C#N)c(Nc5ccc(F)c(Cl)c5)c4c3)cc2)CC1 | 4.11 | 41.2 | 3.62 | 14.5 | 3.66 | 5.43 |  | 0.872 | 0.838 | 1.05 | 1.68 | 4.45 | 10.2 | 34.3 | 2.74 | 1.86 | 4.07 | 1.79 | 2.19 |  |
| CN(C)CCNc1ccc2ncnc3c2c1C(=O)c1ccccc1-3 |  | 5.67 | 13.5 | 10.5 | 10.9 | 4.99 | 11.5 |  |  |  |  | > 23.6 |  | 3.74 |  |  | 17 |  |  |  |
| CCn1nc(C)c2c1C(=O)NC(C)C(=O)N2 (stereo not drawn) | > 100 | > 100 | 28.3 | > 100 | > 100 | > 100 | > 100 |  |  |  |  |  |  |  |  |  | > 100 |  |  |  |
| CC(C)(N)CO[C@H]1C[C@H]2CC[C@@]1(C)C2(C)C | 73.8 | > 100 | 47 | 53.1 | 27.4 | 32.8 | 34.7 |  |  |  |  |  |  | 49.8 |  |  | 41 |  |  |  |
| C=C(C)[C@@H]1CC[C@]2(C)CC[C@]3(C)[C@H](CC[C@@H]4[C@@]5(C)CC[C@H](OC(=O)c6ccccc6)C(C)(C)[C@@H]5CC[C@]43C)[C@@H]12 | > 100 | > 100 | > 100 | > 100 | > 100 | > 100 | > 100 |  |  |  |  | > 100 |  | > 100 |  |  | > 100 |  |  |  |
| COc1cc2cc[n+](C)c(Cc3ccccc3)c2cc1OC |  | > 100 | > 100 | > 100 | > 100 | > 100 | > 100 |  |  |  |  |  |  | > 100 |  |  | > 100 |  |  |  |
| CNC(C)Cc1ccccc1O (stereo not drawn) |  | > 100 | > 100 | > 100 | > 100 | > 100 | > 100 |  |  |  |  | > 100 |  | > 100 |  |  | > 100 |  |  |  |
| Cc1nc(Cl)c(Cl)c(Cl)n1 | 9.24 | 1.17 | 1.96 | 2 | 1.2 | 1.97 | 1.62 |  |  |  |  | 0.0553 |  | 6.04 |  |  | 2.82 |  |  |  |
| COc1ccc(-c2cc(-c3ccccc3)n(C3OCC(OC(C)=O)C(OC(C)=O)C3OC(C)=O)c(=S)c2C#N)cc1 (stereo not drawn) | > 100 | > 100 | > 100 | > 100 | > 100 | > 100 | > 100 |  |  |  |  | > 100 |  | > 100 |  |  | > 100 |  |  |  |
| Nc1ccc2c(c1)C1=NNC(=O)CC1C2 (stereo not drawn) |  | > 100 | > 100 | > 100 | > 100 | > 100 | > 100 |  |  |  |  | > 100 |  | > 100 |  |  | > 100 |  |  |  |
| COc1ccc(NS(=O)c2ccc(-c3ccccc3)cc2)cc1 (stereo not drawn) | > 100 | > 100 | > 100 | > 100 | > 100 | > 100 | > 100 |  |  |  |  | > 100 |  | > 100 |  |  | > 100 |  |  |  |
| CC1SC(c2ccccc2)N(Nc2c3ccccc3nc3ccccc23)C1=O (stereo not drawn) |  | > 100 | > 100 | > 100 | > 100 | > 100 | > 100 |  |  |  |  |  |  | > 100 |  |  | > 100 |  |  |  |
| CC(CN(C)C)C(=O)c1ccccc1C(=O)O (stereo not drawn) | > 100 | > 100 | > 100 | 98.8 | > 100 | > 100 |  |  |  |  |  | 49.4 |  |  |  |  |  |  |  |  |

— PubChem BioAssay (NCI)
